US20240407361A1, “ORGANOSULFUR COMPOUNDS AS PLANT BIOSTIMULANTS” (AHV International B.V., priority 2021, published 2024)

What was measured:
[1] = tested on: sweet pepper (Capsicum annuum “Ritmico”); assay: Organosulfur compounds on sweet pepper, drip (Example 9); type: in vivo; conditions: no fruits yet, preliminary
Description: (§1) Experimental design. The bio-stimulatory effects of organosulfur compounds was tested on lettuce and sweet pepper (Capsicum annuum “Ritmico”). The tested compounds include di-n-propyl disulfide (GAS 629-19-6), di-n-propyl thiosulfonate (i.e., PTSO, CAS 1113-13-9), di-methyl thiosulfonate (GAS 2949-92-0), and di-phenyl thiosulfonate (Gas 1212-08-4). Di-methyl thiosulfonate and di-phenyl thiosulfonate were ordered from Adrich-Sigma. PTSO was purified as described in example 1. In order to obtain a stable and homogenous emulsion, the compounds were dissolved into an emulsifier solution (table 25) to assure that the crops are supplied with the defined solution. […] As examples herein, “PTSO Composition 5.2” refers to an agricultural composition comprising 5.2% PTSO and further comprises 59% emulsifier (propylene glycol and glyceryl polyethyleneglycol ricinoleate). “PTSO composition 5.2 Yuka” in an agricultural composition comprising 5.2% PTSO and 90.2% Yuka extract. “PTSO composition 5.2 Tween” in an agricultural composition comprising 5.2% PTSO, 30.1% Tween, 30.1% DMSO and 30% water.
(§2) The dosage of the test compounds was standardized on base of the molar dosage and the same molar dosage was administered as PTSO. Emulsions were prepared by adding the required amount of the compounds as indicated in table 25 in 100 ml volumes of 50% tween 80 and 50 ml DMSO. Hereafter, the volumes were supplemented to a final volume of 250 ml with the same mixture and incubation took place at an orbital shaker at 37° C. (30 minutes, 250 rpm).

[2] = tested on: Lettuce Lactuca sativa “volare”; assay: Organosulfur compounds on lettuce, seed drench (Example 9); type: in vivo; conditions: for Added harvest (weight) per plant compared to control (%) / Root formation (%) compared to control / Relative fresh weight/plant compared to control (%): seed drench, 1000× diluted emulsion; for Root formation (%) compared to control: control = 100; for Relative fresh weight/plant compared to control (%): control = emulsifier solution = 100; for Harvest: Fresh weight/plant: seeds drenched 10 minutes in 1000× diluted emulsion, 21 °C
Description: as §1, §2
Before seeding, the seeds of lettuce were drenched into 1000× diluted emulsions as indicated in table 25 and incubated for 10 minutes. Each treatment was performed in 4-fold. In table 26 the growth settings of lettuce and sweet peppers are summarized and in table 27 a summary of the realized growth conditions and crop harvest is presented of lettuce.

Row | Compound | Size increase over control (%) [1] [%] | Added harvest (weight) per plant compared to control (%) [2] [%] | Root formation (%) compared to control [2] [%] | Relative fresh weight/plant compared to control (%) [2] [%] | Harvest: Fresh weight/plant [2]
1 | CSS(C)(=O)=O [Di-methyl thiosulfonate, di-methyl thiosulfonate] | 6.1 | 20 | 115 | 120 | 1.96
2 | O=S(=O)(Sc1ccccc1)c1ccccc1 [Di-phenyl thiosulfonate, di-phenyl thiosulfonate] | 2.8 | 3 | 93.9 | 103 | 1.68
3 | CCCSSCCC [Di-propyl disulfide] | 2.8 | 10 | 109 | 110 | 1.80
4 | CCCSS(=O)(=O)CCC [PTSO, di-n-propyl thiosulfonate] | 4.2 | 13 | 110 | 113 | 1.84
